Test results from patent US8552050B2, “Activators of pyruvate kinase M2 and methods of treating disease” (Beth Israel Deaconess Medical Center, priority 2007, dated 2013).
Square brackets hold non-standard residues; d marks the D form. Ends that are not written are not given here. pY = N[C@@H](Cc1ccc(OP(=O)(O)O)cc1)C(=O)O

Key:
PKM2 [1] = target: T1, PKM2 (Homo sapiens, UniProt P14618); experiment: PKM2 inhibition assay, LDH-coupled, FBP added in excess; type: biochemical; details: read-out: Inhibition of PKM2 Activity
Description: (§1) For the inhibition assays, a candidate compound (2 μl 100×) was added into a well. In a control well, 2 μl of DMSO was added in place of the candidate compound. […] The mixture incubated at room temperature for 30 minutes. Immediately prior to measurement readings, 10 μl PEP (0.5 mM) and 2 μl FBP/H2O (0.5 μM) were added to each well. The FBP was added in excess.
Target sequence in this assay (P14618 whole entry): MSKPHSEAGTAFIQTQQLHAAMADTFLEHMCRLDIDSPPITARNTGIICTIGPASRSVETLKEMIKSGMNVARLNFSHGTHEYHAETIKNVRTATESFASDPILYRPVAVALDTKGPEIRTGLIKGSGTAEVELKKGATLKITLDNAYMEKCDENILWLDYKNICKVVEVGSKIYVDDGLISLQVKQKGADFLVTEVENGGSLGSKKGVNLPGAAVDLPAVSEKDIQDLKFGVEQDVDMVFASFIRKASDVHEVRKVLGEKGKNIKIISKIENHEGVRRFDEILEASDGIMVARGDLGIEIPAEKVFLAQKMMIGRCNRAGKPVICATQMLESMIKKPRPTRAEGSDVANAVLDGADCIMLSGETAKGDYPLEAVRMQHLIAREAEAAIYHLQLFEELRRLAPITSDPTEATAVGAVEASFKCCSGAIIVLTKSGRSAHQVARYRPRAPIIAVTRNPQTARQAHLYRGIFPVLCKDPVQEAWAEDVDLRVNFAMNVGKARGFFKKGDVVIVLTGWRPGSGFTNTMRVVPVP

PKM2 [2] = target: T1, PKM2; experiment: PKM2 activator assay, LDH-coupled, no FBP added; type: biochemical
Description: as §1, with “the activator” for “the inhibition”, “for 5” for “for 30”, “mM)” for “mM) and 2 μl FBP/H2O (0.5 μM)”, “well. No” for “well. The”, “was added.” for “was added in excess.”
Target sequence in this assay (P14618 whole entry): as above

recombinant PKM1 = target: T2, recombinant PKM1 (Homo sapiens, UniProt P14618); experiment: 14C-FBP retention on protein after dialysis, scintillation counting; type: binding; details: ~10 μM 14C-FBP, 1 μM protein
T2 construct: made in house
T2 sequence (P14618 1-531 isoform P14618-2, species assumed): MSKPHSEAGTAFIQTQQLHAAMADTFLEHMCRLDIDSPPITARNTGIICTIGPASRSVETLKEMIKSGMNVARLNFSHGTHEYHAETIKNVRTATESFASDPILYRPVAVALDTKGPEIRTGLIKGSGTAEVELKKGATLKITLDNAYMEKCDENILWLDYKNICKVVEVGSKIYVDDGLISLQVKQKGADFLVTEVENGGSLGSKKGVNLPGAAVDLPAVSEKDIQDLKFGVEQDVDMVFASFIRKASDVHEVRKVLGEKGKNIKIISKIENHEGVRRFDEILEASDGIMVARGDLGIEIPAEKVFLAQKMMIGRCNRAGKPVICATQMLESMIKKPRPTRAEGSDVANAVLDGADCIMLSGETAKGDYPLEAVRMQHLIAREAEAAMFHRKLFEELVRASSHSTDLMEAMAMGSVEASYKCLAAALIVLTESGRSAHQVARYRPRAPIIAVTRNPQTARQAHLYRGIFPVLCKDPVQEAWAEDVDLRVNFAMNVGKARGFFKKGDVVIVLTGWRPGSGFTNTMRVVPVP
Description: (§2) However, FBP concentrations following protein purification would be orders of magnitude lower than this value. […] The PKM1, PKM2, and no-protein control were incubated with ^14C-FBP for 30 minutes at room temperature and then […] dialyzed against >2 L of buffer using 10,000 MWCO dialysis cassettes (Pierce) for at least 7 hours. After dialysis, samples were recovered and the amount of ^14C-FBP retained in each dialysis cassette was determined by scintillation counting. […] Upon further analysis, it was estimated that ^14C FBP is retained at roughly half a mole per mole on the PKM2 protein.

PKM2 [3] = target: T1, PKM2; details: Yamada and Noguchi 1999; cited from earlier work
Target sequence in this assay (P14618 whole entry, species assumed): as the sequence (P14618 whole entry) above

PKM2 [4] = target: T1, PKM2; experiment: FBP competition for binding of recombinant PKM2 to phosphoTyr peptide affinity matrix; design: His6 (N); made in house; host or cells: E. coli BL21(DE3)pLysS; details: FIG. 2b
Description: To determine if the FBP binding pocket on PKM2 coordinates phosphoTyr peptide binding, it was assessed whether FBP could compete for binding of PKM2 to a phosphoTyr peptide library column. Recombinant protein was synthesized by cloning human PKM2 into a pET28a vector (Novagen) at NdeI and BamHI sites and PKM2 was expressed as a N-terminal His6 tag fusion protein. The protein was expressed and purified with a standard protocol. Briefly, pET28a-PKM2 was transformed into BL2 I (DE3)pLysS cells and grown to an OD600 of 0.8 and induced with 0.5 mM IPTG for seven hours at room temperature. Cells were lysed using lysozyme in lysis buffer (50 mM Tris, pH 8.0, 10 mM MgCl2, 200 mM NaCl, 100 mM KCl, 20% glycerol, 10 mM imidazole, 1 mM PMSF). The cell lysate was cleared by centrifugation. PKM2 was purified by batch binding to Ni—NTA resin (Qiagen). The resin was then washed with lysis buffer containing 30 mM imidazole for 200 column volumes, and His6-tag-PKM2 was eluted with 250 mM imidazole. The protein was dialyzed overnight at 4° C. to remove the imidazole.
Recombinant PKM2 was incubated with increasing amounts of FBP and then flowed over the phosphoTyr peptide affinity matrix. 20 μM FBP was able to compete for binding of recombinant PKM2 to phosphoTyr peptides (FIG. 2b). […]
Target sequence in this assay (P14618 whole entry): as above

PKM2 [5] = target: T1, PKM2; experiment: 14C-FBP retention on protein after dialysis, scintillation counting; type: binding; design: His6 (N); made in house; host or cells: E. coli BL21(DE3)pLysS
Description: as §2
Target sequence in this assay (P14618 whole entry): as above

M1 and M2 rescue cells = experiment: Proliferation of M1 and M2 rescue cells with oligomycin; type: cell-based, human; details: subsaturating oligomycin (125 nM); M1 vs M2 rescue cells
Description: To examine whether PKM2 expression enhances tumor cell growth under lowered oxygen and glucose conditions, proliferation rates of the M1 and M2 rescue cells (M2 knockdown cells expressing mM1 or mM2) were measured in physiologic glucose levels and hypoxic oxygen. […] The percent decrease in oxygen consumption following addition of subsaturating amounts of oligomycin, a specific inhibitor of mitochondrial ATP synthase, was the same in both the M1 and M2 cells.
5×10^4 cells were seeded in triplicate in 6-well plates and accurate cell counts were obtained every 24 hours using a Coulter particle analyzer for a 3-5 day period. Time zero was taken 16 hours post-seeding. Cells grown in low oxygen were incubated in a sealed hypoxia chamber set to 0.5% oxygen. Cells grown in the presence of oligomycin were treated with 125 nM oligomycin at time zero.

PKM2 [6] = target: T1, PKM2; experiment: Release of 14C-FBP from FBP-loaded recombinant PKM2 after peptide exposure and dialysis; type: binding; design: His6 (N); made in house; host or cells: E. coli BL21(DE3)pLysS; details: 14C counts retained after dialysis; FIG. 4e
Description: To examine the effect of phosphoTyr peptide binding on FBP-bound PKM2, a peptide-binding motif for PKM2 was obtained using traditional peptide library screening. Both the phosphorylated (P-M2tide) and unphosphorylated (NP-M2tide) versions of the optimal peptide were synthesized: P-M2tide (GGAVDDDpYAQFANGG SEQ ID NO:1) and NP-M2tide (GGAVDDDYAQFANGG SEQ ID NO:2) (FIG. 5). The FBP-loaded recombinant PKM2 was incubated with P-M2tide or NP-M2tide, the unbound FBP and peptide were dialyzed away, and the counts retained on the PKM2 were measured.
Target sequence in this assay (P14618 whole entry): as above

PKM2 [7] = target: T1, PKM2; experiment: Recombinant PKM2 activity with P-M2tide / NP-M2tide, LDH-coupled assay; type: biochemical; design: His6 (N); made in house; host or cells: E. coli BL21(DE3)pLysS; details: dose-dependent; FIG. 6a
Source text: Multiple phosphoTyr peptides comprising in vivo phosphorylation sites previously identified on metabolic proteins (Villen et al., Proc. Natl. Acad. Sci. USA 104: 1488-93, 2007) were synthesized. Several of these phosphoTyr peptides, as well as multiple phosphoTyr peptides designed after known tyrosine kinase motifs, were also shown to inhibit PKM2 activity (FIG. 6b).
Target sequence in this assay (P14618 whole entry): as above

Flag-tagged PKM2 = target: T3, Flag-tagged PKM2 (Mus musculus, UniProt P52480); experiment: 3H bound to immunoprecipitated Flag-tagged PKM2 in cells cultured with 3H-glucose; type: cell-based; details: 15-minute treatment with pervanadate
T3 construct: expressed in transfected cells
T3 sequence (P52480 whole entry): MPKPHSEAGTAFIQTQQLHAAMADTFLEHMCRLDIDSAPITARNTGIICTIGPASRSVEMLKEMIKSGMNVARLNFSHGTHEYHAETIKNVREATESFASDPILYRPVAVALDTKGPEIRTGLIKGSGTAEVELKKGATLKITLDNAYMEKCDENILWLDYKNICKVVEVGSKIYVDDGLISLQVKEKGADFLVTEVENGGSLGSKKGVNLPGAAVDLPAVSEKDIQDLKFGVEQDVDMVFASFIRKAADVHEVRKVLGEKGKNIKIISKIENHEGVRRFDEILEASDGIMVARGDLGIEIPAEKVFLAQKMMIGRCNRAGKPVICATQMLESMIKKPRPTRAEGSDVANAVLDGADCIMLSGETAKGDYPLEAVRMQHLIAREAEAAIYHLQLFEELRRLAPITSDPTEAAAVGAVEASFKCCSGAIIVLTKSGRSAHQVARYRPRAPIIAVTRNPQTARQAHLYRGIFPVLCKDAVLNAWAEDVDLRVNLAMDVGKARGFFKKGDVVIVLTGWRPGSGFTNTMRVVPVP
Description: Next, the ability of phosphoTyr protein binding to catalyze the release of FBP from PKM2 in vivo was tested. To address this, cells were cultured overnight with ^3H-glucose that can be metabolized to ^3H-FBP. Flag-tagged PKM2 was immunoprecipitated and the amount of ^3H bound to PKM2 with and without pervanadate-treatment was determined by scintillation counting.

PKM2-expressing cells [8] = experiment: Incorporation of metabolites from 14C-glucose into lipids; type: cell-based
Source text: (§3) Consistent with this model, a 25% increase in the incorporation of metabolites from ^14C-glucose into lipids upon pervanadate-treatment of PKM2-expressing cells was observed. […] A similar increase in the incorporation of ^14C-glucose metabolites into lipids was observed upon pervanadate stimulation of 293 cells.

PKM2-expressing cells [9] = experiment: Cellular oxygen consumption after acute pervanadate stimulation; type: cell-based
Description: as §3
Cellular oxygen consumption rates were measured using a water-jacketed (37° C.) anaerobic chamber fitted with a polarographic oxygen electrode as described previously (Vander Heiden et al, Mol Cell Biol 21: 5899-912, 2001). The electrode was calibrated with 150 mM NaCl equilibrated to room air at 37° C. (corresponding to 199 nmol O2/ml).

pyruvate kinase = details: pervanadate stimulation
Description: Pyruvate kinase activity was measured according to published methods by a continuous assay coupled to lactate dehydrogenase (LDH). The change in absorbance at 340 nm due to oxidation of NADH was measured using a Victor^3 1420 Multilabel Counter spectrophotometer (PerkinElmer, Inc.). Kinetic assays for activity determinations contained recombinant PK (20-100 ng) or cell lysate (1-2 μg), Tris (pH 7.5) (50 mM), KCl (100 mM), MgCl2 (5 mM), ADP (0.6 mM), PEP (0.5 mM), NADH (180 pM), FBP (10 pM), and LDH (8 units).

Molecule: Cc1ccc(C)n1-c1ccc(O)c(C(=O)O)c1
- inhibition at 10 µM (PKM2 [1]; 0.01 mM compound): 21%
- inhibition at 100 µM (PKM2 [1]; 0.1 mM compound): 36%
- inhibition at 1000 µM (PKM2 [1]; 1 mM compound): 55%

Molecule: O=C(COP(=O)(O)O)[C@@H](O)[C@H](O)[C@H](O)COP(=O)(O)O [FBP, fructose-1,6-bisphosphate]
- % Activation of PKM2 by FBP (PKM2 [2]; 0.1 μM FBP): 62%
- % Activation of PKM2 by FBP (PKM2 [2]; 0.3 μM FBP): 89%
- % Activation of PKM2 by FBP (PKM2 [2]; 1 μM FBP): 114%
- 14C counts retained in PKM1 sample (recombinant PKM1): same amount of ^14C counts as the no-protein control sample
- Ka values for FBP binding to PKM2 (PKM2 [3]): micromolar range
- FBP concentration able to compete for binding of recombinant PKM2 to phosphoTyr peptides (PKM2 [4]): 20 µM
- 14C FBP retained on the PKM2 protein (PKM2 [5]; estimated upon further analysis): roughly half
- more 14C counts than PKM1 sample and no-protein control (PKM2 [5]; ~10 μM 14C-FBP, 1 μM protein, after dialysis): 52±5%

Molecule: CC[C@H]1/C=C/C=C/C[C@@H](C)[C@H](O)[C@@](C)(O)C(=O)[C@@H](C)[C@H](O)[C@@H](C)C(=O)[C@@H](C)[C@H](O)[C@@H](C)/C=C/C(=O)O[C@@H]2[C@H](C)[C@H](CC1)O[C@]1(CC[C@H](C)[C@H](C[C@@H](C)O)O1)[C@H]2C [oligomycin]
- effect on proliferation rate (M1 and M2 rescue cells): affected the proliferation rate of the M1 cells significantly more than the M2 cells

Molecule: GGAVDDDYAQFANGG [NP-M2tide]
- FBP retained on / released from PKM2 (PKM2 [6]): significant amount of FBP remaining bound to PKM2

Molecule: GGAVDDDpYAQFANGG (GGAVDDD[pY]AQFANGG) [P-M2tide]
- inhibition of PKM2 activity (PKM2 [7]): 20-30%
- FBP retained on / released from PKM2 (PKM2 [6]): release of the majority of the FBP

Molecule: pervanadate
- reduction in 3H that immunoprecipitated with PKM2 (Flag-tagged PKM2): 30±13%
- increase in the incorporation of metabolites from 14C-glucose into lipids (PKM2-expressing cells [8]; PKM2-expressing cells): 25%
- 14C incorporation into lipids (PKM2-expressing cells [8]; cells expressing the KE point mutant of PKM2): no significant increase
- decrease in oxygen consumption (PKM2-expressing cells [9]; M2KE-expressing cells): 15±4%
- decrease in oxygen consumption (PKM2-expressing cells [9]; PKM2-expressing cells): 36±1%
- decrease in total pyruvate kinase activity (pyruvate kinase; 293, A549 and H1299 cells, FIG. 6c): 20-30%
- pyruvate kinase activity in M1-, M2-, M2KE-, L-expressing knockdown cells (pyruvate kinase; H1299 knockdown/rescue cells, FIG. 6g): specific inhibition of pyruvate kinase activity only in the wild-type M2-expressing cells
